# In ChEMBL document CHEMBL5727147, “Pharmaceutical compounds” (2018):
# Molecular target: T1, Serine/threonine-protein kinase Chk1 (Homo sapiens, UniProt O14757)
# T1 sequence (O14757 whole entry): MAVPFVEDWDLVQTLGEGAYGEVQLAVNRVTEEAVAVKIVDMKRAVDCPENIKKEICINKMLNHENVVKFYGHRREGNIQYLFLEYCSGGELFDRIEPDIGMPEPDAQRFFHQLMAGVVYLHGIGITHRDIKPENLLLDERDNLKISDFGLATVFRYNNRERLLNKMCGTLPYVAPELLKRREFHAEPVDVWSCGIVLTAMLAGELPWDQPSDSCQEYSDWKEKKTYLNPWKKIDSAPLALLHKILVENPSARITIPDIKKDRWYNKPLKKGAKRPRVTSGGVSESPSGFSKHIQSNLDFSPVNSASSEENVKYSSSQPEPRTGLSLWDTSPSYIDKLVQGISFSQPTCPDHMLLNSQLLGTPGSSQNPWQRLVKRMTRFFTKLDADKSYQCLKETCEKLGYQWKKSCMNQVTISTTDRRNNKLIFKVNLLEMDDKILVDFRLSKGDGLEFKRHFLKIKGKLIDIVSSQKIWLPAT
# Assay: Kinase Inhibiting Activity Assay: Chk-1 Kinase Inhibiting ActivityThe compounds of the invention were tested for activity against Chk-1 kinase using the materials and protocols set out below.Reaction Buffer:Base Reaction buffer: 20 mM Hepes (pH 7.5), 10 mM MgCl2, 1 mM EGTA, 0.02% Brij35, 0.02 mg/ml BSA, 0.1 mM Na3VO4, 2 mM DTT, 1% DMSO*Required cofactors are added individually to each kinase reactionReaction Procedure:(i) Prepare indicated substrate in freshly prepared Base Reaction Buffer(ii) Deliver any required cofactors to the substrate solution above(iii) Deliver indicated kinase into the substrate solution and gently mix(iv) Deliver compounds in DMSO into the kinase reaction mixture(v) Deliver 33P-ATP (specific activity 0.01 μCi/μl final) into the reaction mixture to initiate the reaction.(vi) Incubate kinase reaction for 120 minutes at room temperature(vii) Reactions are spotted onto P81 ion exchange paper (Whatman #3698-915)(viii) Wash filters extensively in 0.1% phosphoric acid.(ix) Dry filters and measure counts in scintillation counterKinase Information:CHK-1 Genbank Accession # AF016582Recombinant full length construct, N-terminal GST tagged, purified from insect cells.No special measures were taken to activate this kinase.Final concentration in assay=0.5 nMSubstrate: CHKtidePeptide sequence: [[…]]Final concentration in assay=20 μM
row,IC50 [nM],Structure (SMILES)
1,0.59,COc1cc(CNC(=O)C2CC2)ccc1-c1cc(Nc2cnc(C#N)cn2)n[nH]1
2,< 1,COc1cc(OCc2cocn2)ccc1-c1cc(Nc2cnc(C#N)cn2)n[nH]1
3,0.51,COc1cc(C2CCCCN2C)ccc1-c1cc(Nc2cnc(C#N)cn2)n[nH]1 (stereo not drawn)
